Data published in patent US12384769B2, “Heteroaryl-substituted aminoalkyl azole compounds as pesticides” (Elanco Animal Health GmbH, priority 2019, dated 2025).

Assays:
Format in all cases: in vivo
Boophilus microplus = Boophilus microplus injection test (BOOPMI Injection); details: Rhipicephalus microplus, 168 h, injection into adult engorged female ticks, egg deposition after 7 days, read-out: activity (efficacy, infertile eggs); for pest or weed control at 0.004 mg: 4 μg/animal; for pest or weed control at 0.02 mg: 20 μg/animal
In short: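 Adult engorged female ticks (5 per group) injected into the abdomen with 1 μL compound in DMSO, then held in a climate chamber. Fertile egg deposition scored after 7 days, with unclear eggs kept until hatching (~42 days). Efficacy 100% = all eggs infertile, 0% = all fertile.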

[1] = system: Rhipicephalus microplus (strain Parkhurst, resistant against synthetic pyrethroids); test: Rhipicephalus microplus in-vitro contact test, larval cattle tick (BOOPMI Contact); details: 5 μg/cm^2 (=500 g/ha), after 48 hours, read-out: activity (efficacy, larvae dead or moribund)
In short: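 Efficacy, expressed as percentage of larvae dead or moribund, is judged by negative geotactic behaviour 48 h after larvae (20-50 per tube) enter tubes whose inner walls carry a dried acetone film of compound, 5 μg/cm² at 900 ppm. Incubation: horizontal, 27 °C, 85% relative humidity.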

Ctenocephalides felis [2] = test: Ctenocephalides felis in-vitro contact test, adult cat flea; details: 5 μg/cm^2 (=500 g/ha), after 48 hours, read-out: activity (efficacy, fleas dead or moribund)
In short: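 Acetone solutions coated onto inner walls of glass tubes; 900 ppm gives 5 μg/cm^2. After drying, 5-10 adult Ctenocephalides felis per tube held 48 h at room temperature. Fleas then placed on 45-50° C. plate for up to 5 min; those unable to climb away scored dead or moribund, efficacy as % dead/moribund.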

Ctenocephalides felis [3] = test: Ctenocephalides felis oral test (CTECFE); details: 48 h, 100 ppm in cattle blood, after 2 days
In short: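 About 20 adult unfed fleas fed through parafilm on cattle blood held at 37° C and dosed with compound from a DMSO concentrate; flea chamber at room temperature. Percent mortality scored after 2 days.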

Diabrotica balteata = Diabrotica balteata spray test; details: 168 h, wheat seeds, after 7 days, read-out: activity (efficacy, seedlings grown); for pest or weed control at 160 µg/disc, 500 g/ha: 500 g/ha (=160 μg/well)
In short: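 Efficacy was read 7 days after infesting each unit with 10–20 banded cucumber beetle larvae, as % of seedlings growing like untreated, uninfested controls. Before infestation, wheat seeds germinated 1 day on agar (5 per well) were sprayed with the active ingredient. The active was formulated in acetone/DMF and diluted in water containing emulsifier.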

Myzus persicae [4] = test: Myzus persicae oral test; details: 120 h, after 5 days
Procedure: Solvent: 100 parts by weight acetone
Afterwards the plates are sealed with parafilm through which a mixed population of the green peach aphid (Myzus persicae) can suck on the compound preparation.
(§1) After 5 days mortality in % is determined. 100% means all aphids have been killed and 0% means none of the aphids have been killed.

Spodoptera frugiperda = Spodoptera frugiperda spray test; details: in Zea mays, 168 h, read-out: activity (mortality)
In short: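 Larvae of fall armyworm placed on dried maize leaf sections previously sprayed with emulsified compound (acetone/DMF solvent, water with 1000 ppm emulsifier). Percent of caterpillars killed recorded on day 7, 0–100% scale.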

[5] = system: Aedes aegypti strain MONHEIM; test: Aedes aegypti test (AEDSAE surface treatment & contact assay); details: 30 minutes exposure, 24 hours after contact, read-out: efficacy (mortality); for mortality at 4 mg/m2: surface concentration 4 mg/m^2, glazed tile; for mortality at 20 mg/m2: surface concentration 20 mg/m^2, glazed tile
Procedure: Aedes aegypti Test (AEDSAE Surface Treatment & Contact Assay)
(§2) Solvent: Aceton+2000 ppm rapeseed oil methyl ester (RME)
(§3) In order to produce a sufficient, active ingredient containing solution it is necessary to solve the test compound in the solvent-mix (acetone at 2 mg/mL/RME 2000 ppm). This solution is pipetted onto a glazed tile and after evaporation of the acetone, adult mosquitoes of the species Aedes aegypti strain MONHEIM are placed onto the dried surface. The exposure time is 30 minutes.
(§4) Mortality in percent (%) is determined 24 hours after contact of the insects to the treated surface. 100% mortality means that all tested insects are dead, whereas 0% means that no insect died.

Rhipicephalus sanguineus = Rhipicephalus sanguineus in-vitro contact test, adult brown dog ticks (RHIPSA Contact); details: 5 μg/cm^2 (=500 g/ha), after 48 hours, read-out: activity (efficacy, ticks dead or moribund)
In short: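 Acetone solution coated onto glass tube walls; 900 ppm gives 5 μg/cm^2. After drying, 5-10 adult ticks per tube kept at room temperature for 48 h, then placed on a 45-50° C heating plate up to 5 min; ticks unable to climb away counted dead or moribund, efficacy as % affected.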

Myzus persicae [6] = test: Myzus persicae spray test; details: foliar, 120 h, Chinese cabbage leaf disks, after 5 days
Procedure: Myzus persicae—Spray Test
Solvent: 78.0 parts by weight acetone • 1.5 parts by weight dimethylformamide
Emulsifier: alkylarylpolyglycol ether
To produce a suitable preparation of active compound, 1 part by weight of active compound is mixed with the stated amount of solvents and is diluted with water, containing an emulsifier concentration of 1000 ppm, to the desired concentration. Further test concentrations are prepared by dilution with emulsifier containing water.
Chinese cabbage (Brassica pekinensis) leaf disks infected with all instars of the green peach aphid (Myzus persicae), are sprayed with a preparation of the active ingredient of the desired concentration.
as §1

Meloidogyne incognita = Meloidogyne incognita test; details: 20 ppm, after 14 days
Procedure: Meloidogyne incognita—Test
Solvent: 125.0 parts by weight of acetone
To produce a suitable preparation of active compound, 1 part by weight of active compound is mixed with the stated amount of solvent, and the concentrate is diluted with water to the desired concentration.
Vessels are filled with sand, a solution of the active ingredient, a suspension containing eggs and larvae of the southern root-knot nematode (Meloidogyne incognita) and salad seeds. The salad seeds germinate, and the seedlings grow. Galls develop in the roots.
After 14 days the nematicidal activity is determined based on the percentage of gall formation. 100% means no galls were found and 0% means the number of galls found on the roots of the treated plants was equal to that in untreated control plants.

[7] = system: Anopheles funestus strain FUMOZ-R; test: Anopheles funestus test (ANPHFU surface treatment & contact assay); details: 30 minutes exposure, 24 hours after contact, read-out: efficacy (mortality); for mortality at 4 mg/m2: surface concentration 4 mg/m^2, glazed tile; for mortality at 20 mg/m2: surface concentration 20 mg/m^2, glazed tile
Procedure: Anopheles funestus Test (ANPHFU Surface Treatment & Contact Assay)
as §2
as §3, with “Anopheles funestus” for “Aedes aegypti”, “FUMOZ-R (Hunt et al., Med. Vet. Entomol. 2005 September; 19(3): 271-275)” for “MONHEIM”
as §4

[8] = system: Musca domestica strain WHO-N; test: Musca domestica test (MUSCDO surface treatment & contact assay); details: 30 minutes exposure, 24 hours after contact, read-out: efficacy (mortality); for mortality at 4 mg/m2: surface concentration 4 mg/m^2, glazed tile
Procedure: Musca domestica Test (MUSCDO Surface Treatment & Contact Assay)
as §2
as §3, with “flies” for “mosquitoes”, “Musca domestica” for “Aedes aegypti”, “WHO—N” for “MONHEIM”
as §4

Structure (SMILES) | pest or weed control at 0.004 mg (Boophilus microplus) [%] | pest or weed control at 0.02 mg (Boophilus microplus) [%] | pest or weed control at 5 µg/cm2 [1] [%] | pest or weed control at 5 µg/cm2, 5 µg/cm2 (Ctenocephalides felis [2]) [%] | mortality at 100 ppm (Ctenocephalides felis [3]) [%] | pest or weed control at 160 µg/disc, 500 g/ha (Diabrotica balteata) [%] | mortality at 4 ppm (Myzus persicae [4]) [%] | mortality at 100 g/ha (Spodoptera frugiperda) [%] | mortality at 500 g/ha (Spodoptera frugiperda) [%] | mortality at 4 mg/m2 [5] [%] | pest or weed control at 5 µg/cm2, 5 µg/cm2 (Rhipicephalus sanguineus) [%] | pest or weed control at 100 g/ha (Diabrotica balteata) [%] | mortality at 500 g/ha (Myzus persicae [6]; 500 g/ha) [%] | activity (nematicidal activity, gall formation) (Meloidogyne incognita) [%] | mortality at 20 mg/m2 [5] [%] | mortality at 4 mg/m2 [7] [%] | mortality at 20 mg/m2 [7] [%] | mortality at 4 mg/m2 [8] [%] | mortality at 100 g/ha (Myzus persicae [6]) [%] | mortality at 20 mg/m2 ([8]; surface concentration 20 mg/m^2, glazed tile) [%]
C[C@H](Nc1nc2cc(C(F)(F)F)cc(Cl)c2o1)c1ncnn1-c1ncccn1 [Example I-006] | 100 | 100 | 100 | 100 | 100 | 100 | 90 | 100 | 100 | 85 to 100 | – | – | – | – | – | – | – | – | – | –
Cc1nc([C@H](C)Nc2nc3cc(C(F)(F)F)c(Cl)cc3o2)n(-c2ncccn2)n1 [Example I-011] | 100 | 100 | 80 | – | 100 | 100 | 90 | – | 100 | – | 80 | 100 | – | – | – | – | – | – | – | –
C[C@H](Nc1nc2cc(Cl)cc(Cl)c2o1)c1ncnn1-c1ncccn1 [Example I-013] | – | – | 100 | – | 90 | 100 | – | – | – | – | – | – | 100 | – | – | – | – | – | – | –
C[C@H](Nc1nc2cc(C(F)(F)F)cc(Cl)c2o1)c1ncnn1-c1ccc(Cl)nn1 [Example I-046, 7-Chlor-N-{(1S)-1-[1-(6-chlorpyridazin-3-yl)-1H-1,2,4-triazol-5-yl]ethyl}-5-(trifluormethyl)-1,3-benzoxazol-2-amin] | – | – | 80 | – | – | – | – | – | – | – | – | – | – | 90 | – | – | – | – | – | –
C[C@H](Nc1nc2cc(C(F)(F)F)c(Cl)cc2o1)c1ncnn1-c1ncc(Cl)cn1 [Example I-059, 6-Chlor-N-{(1)S-1-[1-(5-chlorpyrimidin-2-yl)-1H-1,2,4-triazol-5-yl]ethyl}-5-(trifluormethyl)-1,3-benzoxazol-2-amin] | – | – | 100 | 100 | – | – | 90 | 100 | – | 85 to 100 | 100 | 100 | – | – | 90 to 100 | 85 to 100 | 90 to 100 | 90 to 100 | – | –
Cc1cnc(-n2ncnc2[C@H](C)Nc2nc3cc(C(F)(F)F)c(Cl)cc3o2)nc1 [Example I-060, 6-Chlor-N-{(1S)-1-[1-(5-methylpyrimidin-2-yl)-1H-1,2,4-triazol-5-yl]ethyl}-5-(trifluormethyl)-1,3-benzoxazol-2-amin] | – | – | 100 | 100 | – | – | 90 | 83 | – | – | 80 | 100 | – | – | – | – | – | – | – | –
C[C@H](Nc1nc2cc(C(F)(F)F)c(Cl)cc2o1)c1ncnn1-c1ncc(F)cn1 [Example I-061, 6-Chlor-N-{(1S)-1-[1-(5-fluorpyrimidin-2-yl)-1H-1,2,4-triazol-5-yl]ethyl}-5-(trifluormethyl)-1,3-benzoxazol-2-amin] | – | – | 100 | 100 | – | – | 100 | 100 | – | 85 to 100 | 80 | 100 | – | – | 90 to 100 | 85 to 100 | – | 90 to 100 | – | –
C[C@H](Nc1nc2cc(OC(F)(F)F)c(Cl)cc2o1)c1ncnn1-c1ncc(F)cn1 [Example I-081, 6-Chlor-N-{(1S)-1-[1-(5-fluorpyrimidin-2-yl)-1H-1,2,4-triazol-5-yl]ethyl}-5-(trifluormethoxy)-1,3-benzoxazol-2-amin] | – | – | 90 | 100 | – | – | 90 | 100 | – | 85 to 100 | 100 | 100 | – | – | 90 to 100 | 85 to 100 | 90 to 100 | 90 to 100 | 90 | 90 to 100
C[C@H](Nc1nc2cc(OC(F)(F)F)c(Cl)cc2o1)c1ncnn1-c1ncccn1 [Example I-082, 6-Chlor-N-{(1S)-1-[1-(pyrimidin-2-yl)-1H-1,2,4-triazol-5-yl]ethyl}-5-(trifluormethoxy)-1,3-benzoxazol-2-amin] | – | – | 100 | 100 | – | – | 100 | 100 | – | – | 100 | 100 | – | – | – | – | – | – | – | –
C[C@H](Nc1nc2c(Cl)cc(C(F)(F)F)cn2n1)c1ncnn1-c1ncccn1 [Example I-092, 8-chloro-N-{(1S)-1-[1-(pyrimidin-2-yl)-1H-1,2,4-triazol-5-yl]ethyl}-6-(trifluoromethyl)[1,2,4]triazolo[1,5-a]pyridin-2-amine] | – | 100 | 100 | 90 | 100 | – | – | – | – | – | – | – | – | – | – | – | – | – | 90 | –
C[C@H](Nc1nc2c(Cl)cc(C(F)(F)F)cn2n1)c1ncnn1-c1ncc(Br)cn1 [Example I-093, N-{(1S)-1-[1-(5-bromopyrimidin-2-yl)-1H-1,2,4-triazol-5-yl]ethyl}-8-chloro-6-(trifluoromethyl)[1,2,4]triazolo[1,5-a]pyridin-2-amine] | – | – | 100 | 100 | 100 | – | – | – | – | – | – | – | – | – | – | – | – | – | 90 | –
